In general, EC50 refers to the concentration giving half of the maximal effect. As usually defined, the melting point is the temperature of the solid-liquid transition. What is called CC50 is the concentration giving 50% cytotoxicity.

Here are results for 18 molecules from PMC8648852, “Pyrazoline derivatives as promising novel antischistosomal agents” (Scientific Reports, 2021).

One data set has as its system S. mansoni adult worm. Nature of the data set: In vitro antischistosomal assay (viability of ex vivo adult worms). Type of data set: cell-based, Schistosoma mansoni. As to conditions: for EC50: 72 h, ex vivo adult schistosomes, brackets = 95% confidence interval; for Time until all parasites were dead: 50 μM; for Antiparasitic activity in initial screen: 50 µM, after 72 h, adult worms. The method, then: For biological screening, S. mansoni adult parasites were isolated from the mouse infection model (parasite ex vivo) and all compounds were initially screened at 50 µM. The gold-standard antiparasitic compound praziquantel was used as a positive control and DMSO at 0.5% v/v (representing the highest concentration of solvent) served as a negative control. […] For the remaining compounds tested, no EC50 values could be calculated due to lack of activity at 50 μM. […] In tandem, our findings confirm that pyrazolines have a potent antiparasitic activity. Indeed, few compounds in the literature are active at low concentrations for review see[11],[19]. According to criteria established by the World Health Organization (WHO) for antiparasitic hits, leads, and drug candidates, at the start of a screening campaign a compound should inhibit mobility of helminths in vitro at 10 μg/mL[20], commonly ranging from 30 to 40 μM. Thus, the anthelminthic activity of pyrazolines surpasses criteria established by the WHO.
Adult schistosomes (BH strain) were isolated from infected mice and cultured in RPMI medium + 10% fetal calf serum and 100 U/mL penicillin and 100 μg/mL streptomycin in a 24-well culture plate (Corning, New York, NY, USA) containing one pair of parasites per well at 37 °C and 5% CO2 (Panasonic Healthcare, Sakata, Oizumi-machi, Japan)[38],[39]. For antischistosomal assay, compounds were dissolved in DMSO (final concentration of 0.5% v/v). Each drug concentration was tested at least in triplicate, and the experiments were repeated three times. The initial concentration of the pyrazolines and praziquantel was 50 μM and 3 μM, respectively, which was serially diluted in medium with twofold dilutions to give six concentrations[40],[41]. The negative control worms were assayed in RPMI 1640 medium and RPMI 1640 with 0.5% DMSO. Parasites were monitored daily at 24, 48 and 72 h under a stereomicroscope (Leica Microsystems EZ4E, Wetzlar, Germany) and an inverted microscope (BEL Engineering INV 100, Monza, MB, Italy). Egg production was evaluated daily as previously described. Parasite viability was averaged and 50% effective concentrations (EC50) were calculated using GraphPad Prism software[24],[43].

The nature of data set [1]: Cytotoxicity assay (MTT), Vero cells. The note with it: African green monkey, Vero cells (African green monkey kidney cells); Vero cells, 72 h, MTT; brackets = 95% confidence interval. Type of data set: cell-based, African green monkey. Here is the method: (§1) The selectivity index (SI) of a compound is a widely accepted parameter used to express a drug’s in vitro efficacy. Therefore, the cytotoxic effect of these six pyrazolines (16, 18, 19, 21, 22 and 23) was evaluated using a monkey cell line (Vero) and a human cell line (SH-SY5Y). Cells were incubated with each compound at a range of concentrations for determination of cytotoxic concentrations 50% (CC50). […] With the EC50 data collected for schistosomes as well as the CC50 for animal and human cells, the selectivity indices (SI) were determined for each of the pyrazolines tested (Table 1). […] A SI value ≥ 10 is in accordance with the criteria defined by the WHO for antiparasitic hits, leads, and drug candidates. […] Comparatively, the SI values achieved with pyrazolines exceeded those obtained for other relevant heterocyclic compounds with antischistosomal properties[21],[22]. Although the SI values recorded for pyrazolines were more than 10 times below those for the reference drug praziquantel, a SI value ≥ 10 fulfills and exceeds the criteria established by the WHO for potential compounds as anthelmintic agents. The cytotoxicity of compounds was tested against Vero cells (African green monkey kidney cells obtained from the American Type Culture Collection, ATCC; Manassas, VA, USA) and SH-SY5Y cells (human neuroblastoma obtained from Banco de Células do Rio de Janeiro, BCRJ, RJ, Brazil). Cells was cultured in DMEM medium supplemented with 10% fetal calf serum, penicillin (100 U/mL) and streptomycin (100 µg/mL) and 2 mM of L-glutamine at 37 °C and in a 5% CO2 humidified incubator (Panasonic). The DMEM contained 1 or 4 mg/mL glucose for Vero and SH-SY5Y cells, respectively. Cytotoxicity assay was performed as previously described[25],[26]. Briefly, cells were seeded in 96-well plates (Corning) in DMEM medium and incubated with twofold serial drug starting at 200 μM following a 24 h adhesion period at 37 °C in 5% CO2. After 72 h, MTT was added and incubation was continued for another 3 h. The plate was then read using spectrophotometer (Epoch Microplate Spectrophotometer, BioTek Instruments, Winooski, VT, USA) at 595 nm. The assay was conducted in duplicate and repeated three times. Values were expressed as percentage of the control and 50% cytotoxic concentration (CC50) values were calculated. The selectivity indices (SI) of tested compounds were calculated by dividing CC50 values obtained on mammalian cells with EC50 values determined on S. mansoni.

A further data set has as its system Vero cells. Nature of the data set: Cytotoxicity assay (MTT), Vero cells. Type of data set: cell-based, African green monkey. The note with it: CC50 (Vero) divided by EC50 (S. mansoni). The method, then:
as §1

Data set [2] is described as follows: Cytotoxicity assay (MTT), SH-SY5Y cells. Format: cell-based, human. As to conditions: human, SH-SY5Y cells (human neuroblastoma); SH-SY5Y cells, 72 h, MTT. Here is the method:
as §1

For the next data set, the system named is SH-SY5Y cells. Nature of the data set: Cytotoxicity assay (MTT), SH-SY5Y cells. Format: cell-based, human. As to conditions: CC50 (SH-SY5Y) divided by EC50 (S. mansoni). The method, then: as §1

Structures are written as SMILES.

The molecule `CCCCOc1ccc(C2CC(c3ccccc3)=NN2C(N)=O)cc1` (centres unmarked) [Compound 15, 5-(4-butoxyphenyl)-4,5-dihydro-3-phenylpyrazole-1-carboxamide] registered a concentration giving a half-maximal response (EC50) with S. mansoni adult worm (Schistosoma mansoni) of over 50 µM.
In turn, `CCCCCCCCCCCCOc1ccc(C2CC(c3ccccc3)=NN2C(N)=O)cc1` (centres unmarked) [Compound 17, 5-(4-(dodecyloxy)phenyl)-4,5-dihydro-3-phenylpyrazole-1-carboxamide] gave a melting point of 94.8 to 97.9 °C. The molecule also registered an EC50 in the data set with S. mansoni adult worm (Schistosoma mansoni) of over 50 µM.
As to `CCCCCCCCCCOc1ccc(C2CC(c3ccc(F)cc3)=NN2C(N)=O)cc1` (centres unmarked) [Compound 18, 5-(4-(decyloxy)phenyl)-3-(4-fluorophenyl)-4,5-dihydropyrazole-1-carboxamide], the cytotoxic concentration (CC50) at 72 h in data set [1] came to 159 µM. Moreover, the “Monkey cells SI (selectivity index)” value with Vero cells amounted to 10.9. The molecule also yielded a CC50 at 72 h in data set [2] of over 200 µM. The “Human cells SI (selectivity index)” value in the data set with SH-SY5Y cells is given as over 13.7. Besides, in the data set on S. mansoni adult worm, the “Time until all parasites were dead” value was at most 24 h, the “Antiparasitic activity in initial screen” value was “showed antiparasitic activity” and the EC50 stood at 14.6 µM. For the same molecule, the EC50 in the data set on S. mansoni adult worm (Schistosoma mansoni) was under 20 µM.
Turning to `NC(=O)N1N=C(c2ccc(F)cc2)CC1c1ccc(Br)cc1` (centres unmarked) [Compound 20, 5-(4-bromophenyl)-3-(4-fluorophenyl)-4,5-dihydropyrazole-1-carboxamide], the melting point was in the range of 176 to 178 °C. The molecule further displayed an EC50 in the data set with S. mansoni adult worm (Schistosoma mansoni) of over 50 µM.
As for `CN(C)c1ccc(C2CC(c3ccc(F)cc3)=NN2C(N)=O)cc1` (centres unmarked) [Compound 21, 5-(4-(dimethylamino)phenyl)-3-(4-fluorophenyl)-4,5-dihydropyrazole-1-carboxamide], the CC50 at 72 h in data set [1] is over 200 µM. In the data set with Vero cells, the “Monkey cells SI (selectivity index)” value is given as over 10.1. Also, the CC50 at 72 h in data set [2] is over 200 µM. Also, the “Human cells SI (selectivity index)” value with SH-SY5Y cells is given as over 10.1. In addition, in the data set on S. mansoni adult worm, the “Time until all parasites were dead” value was 48 h, the “Antiparasitic activity in initial screen” value is “showed antiparasitic activity” and the EC50 came out at 19.8 µM. Further, in the data set on S. mansoni adult worm (Schistosoma mansoni), the EC50 is under 20 µM.
For the molecule `NC(=O)N1N=C(c2ccc(F)cc2)CC1c1ccc(Cl)cc1` (centres unmarked) [Compound 22, 5-(4-chlorophenyl)-3-(4-fluorophenyl)-4,5-dihydropyrazole-1-carboxamide], the CC50 at 72 h in data set [1] came out at 134 µM. In addition, the “Monkey cells SI (selectivity index)” value in the data set with Vero cells was 21.6. For the same molecule, the CC50 at 72 h in data set [2] was over 200 µM. Also, the “Human cells SI (selectivity index)” value in the data set with SH-SY5Y cells is on record as over 32.2. Moreover, the “Death of all worms within 24 h” value with S. mansoni adult worm (25 μM, 24 h) is reported as “death of all worms”. Besides, in the data set with S. mansoni adult worm, the “Time until all parasites were dead” value is listed as at most 24 h, the “Antiparasitic activity in initial screen” value is “showed antiparasitic activity” and the EC50 is 6.2 µM. Also, the EC50 in the data set on S. mansoni adult worm (Schistosoma mansoni) is under 10 µM.
With `CCCCCCCCOc1ccc(C2CC(c3ccccc3)=NN2C(N)=S)cc1` (centres unmarked) [Compound 24, 4,5-dihydro-5-(4-(octyloxy)phenyl)-3-phenylpyrazole-1-carbothioamide], the melting point fell in the range of 90.4 to 92.1 °C. Also, the half-maximal effective concentration (EC50) in the data set on S. mansoni adult worm (Schistosoma mansoni) is over 50 µM.
`CCCCCCCCCOc1ccc(C2CC(c3ccccc3)=NN2C(N)=S)cc1` (centres unmarked) [Compound 25, 4,5-dihydro-5-(4-(nonyloxy)phenyl)-3-phenylpyrazole-1-carbothioamide] registered a melting point of 86.4 to 88.2 °C. Further, the EC50 with S. mansoni adult worm (Schistosoma mansoni) is over 50 µM.
In the case of `CCCCCCCCCCOc1ccc(C2CC(c3ccccc3)=NN2C(N)=S)cc1` (centres unmarked) [Compound 26, 5-(4-(decyloxy)phenyl)-4,5-dihydro-3-phenylpyrazole-1-carbothioamide], the melting point was in the range of 96.2 to 98.9 °C. This molecule also returned an EC50 in the data set with S. mansoni adult worm (Schistosoma mansoni) of over 50 µM.
On to `CCCCCCCCCCCCOc1ccc(C2CC(c3ccccc3)=NN2C(N)=S)cc1` (centres unmarked) [Compound 27, 5-(4-(dodecyloxy)phenyl)-4,5-dihydro-3-phenylpyrazole-1-carbothioamide], for which the melting point was found to be 94.2 °C. The molecule further displayed an EC50 in the data set with S. mansoni adult worm (Schistosoma mansoni) of over 50 µM.
For `CCCCCCCCCCCCCCOc1ccc(C2CC(c3ccccc3)=NN2C(N)=S)cc1` (centres unmarked) [Compound 28, 4,5-dihydro-3-phenyl-5-(4-(tetradecyloxy)phenyl)pyrazole-1-carbothioamide], in that order: 97 to 99.2 °C and over 50 µM.
For `CCCCCCCCCOc1ccc(C2CC(c3ccc(F)cc3)=NN2C(N)=S)cc1` (centres unmarked) [Compound 29, 3-(4-fluorophenyl)-4,5-dihydro-5-(4-(nonyloxy)phenyl)pyrazole-1-carbothioamide], in that order: 113 to 114 °C and over 50 µM.
For `CCCCCCCCCCOc1ccc(C2CC(c3ccc(F)cc3)=NN2C(N)=S)cc1` (centres unmarked) [Compound 30, 3-(4-fluorophenyl)-4,5-dihydro-5-(4-(decyloxy)phenyl)pyrazole-1-carbothioamide], in that order: 105.5 to 108.4 °C and over 50 µM.
`CCCCCCCCCCCCCCOc1ccc(C2CC(c3ccc(F)cc3)=NN2C(N)=S)cc1` (centres unmarked) [Compound 31, 3-(4-fluorophenyl)-4,5-dihydro-5-(4-(tetradecyloxy)phenyl)pyrazole-1-carbothioamide] returned a melting point of 92.2 to 94.6 °C. Besides, in the data set with S. mansoni adult worm (Schistosoma mansoni), the EC50 is over 50 µM.
Molecule `Cc1ccc(-c2cc(-c3ccc(F)cc3)[nH]n2)cc1` [Compound 32, 5-(4-fluorophenyl)-3-(4-methylphenyl)-1H-pyrazole] registered a 50% effective concentration (EC50) with S. mansoni adult worm (Schistosoma mansoni) of over 50 µM.
`Fc1ccc(-c2cc(-c3ccc(Br)cc3)n[nH]2)cc1` [Compound 33, 3-(4-bromophenyl)-5-(4-fluorophenyl)-1H-pyrazole] returned a melting point of 217 to 219 °C. The molecule also showed an EC50 in the data set on S. mansoni adult worm (Schistosoma mansoni) of over 50 µM.
In the case of `Fc1ccc(-c2cc(-c3ccc(Cl)cc3)n[nH]2)cc1` [Compound 34, 3-(4-chlorophenyl)-5-(4-fluorophenyl)-1H-pyrazole], the EC50 in the data set on S. mansoni adult worm (Schistosoma mansoni) was over 50 µM.
On to `O=C(C1CCCCC1)N1CC(=O)N2CCc3ccccc3C2C1` (centres unmarked) [PZQ, praziquantel, reference compound], for which the CC50 at 72 h in data set [1] and in data set [2] was over 200 µM throughout. In the data set on S. mansoni adult worm (Schistosoma mansoni), this molecule gave an EC50 of 0.93 µM.
